Laboratory results: BindingDB's records for patent US20240400545 (Hangzhou Innogate Pharma, 2024)

molecular target: T1, Histone acetyltransferase KAT6A [507-778] (Homo sapiens, UniProt Q92794); assay: Inhibition of KAT6A Enzyme Activity Assay
T1 construct: 507-778
Procedure: 1× experimental buffer (modified Tris buffer) was prepared, and the compounds were dissolved with 100% DMSO to form 10 mM reservoir solution and diluted according to a certain concentration gradient. The compounds were transferred to a 384-well plate using an automatic sampler Echo, and the final concentration of DMSO was 1%. 1× KAT6A enzyme (catalytic domain) solution was prepared. A mixed solution of [3H]-acetyl-CoA (PERKIN ELMER, Cat. No. NET290250UC) and the substrate peptide H3 (1-21) was prepared. 10 μL of the enzyme solution was transferred to the 384-well plate and incubated at room temperature for 15 minutes. 10 μL of the mixed solution of [3H]-acetyl-CoA and the substrate peptide H3 (1-21) were added to the plate to initiate the reaction. The plate was incubated at room temperature for 1 hour. 10 μL of the stop solution was added to terminate the reaction. 25 μL of the reaction solution was transferred to a Flashplate (Perkin Elmer, Cat. No. SMP410A001PK) and incubated at room temperature for 1 hour. The plate was read using Microbeta. The inhibition rate of the compounds was calculated using the formula of Excel: inhibition %=(Max-Signal)/(Max−Min)*100%. Where max is the value of the DMSO control, min is the value of the non-enzymatic control, and signal is the value of the well where the compound was tested.

T1 sequence (Q92794 507-778): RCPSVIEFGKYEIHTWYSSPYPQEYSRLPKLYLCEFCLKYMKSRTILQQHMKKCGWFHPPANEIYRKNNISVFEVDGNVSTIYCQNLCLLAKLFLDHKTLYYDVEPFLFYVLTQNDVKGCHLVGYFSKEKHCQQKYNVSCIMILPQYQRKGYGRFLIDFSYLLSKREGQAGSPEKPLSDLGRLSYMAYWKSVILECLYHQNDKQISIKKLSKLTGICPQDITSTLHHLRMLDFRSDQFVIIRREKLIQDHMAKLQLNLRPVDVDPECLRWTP

Structure (SMILES)	IC50
C#Cc1ccc(OC)c(S(=O)(=O)Nc2noc3cc(Cn4cccn4)cc(OC)c23)c1 [US20240400545, Compound 3]	< 20 nM
COc1ccc(N2CCN(C)CC2)cc1S(=O)(=O)Nc1noc2cc(Cn3cccn3)cc(OC)c12 [US20240400545, Compound 5]	< 200 nM
COc1ccc(N2CCOCC2)cc1S(=O)(=O)Nc1noc2cc(Cn3cccn3)cc(OC)c12 [US20240400545, Compound 6]	< 100 nM
COc1ccc(C#CC2CC2)cc1S(=O)(=O)Nc1noc2cc(Cn3cccn3)cc(OC)c12 [US20240400545, Compound 7]	< 10 nM
COc1ccc(C#CC2CC2)cc1S(=O)(=O)NC(=O)c1cc2ccc(N(C)C)cc2o1 [US20240400545, Compound 8]	< 1000 nM
CC#Cc1cc(OC)c(S(=O)(=O)Nc2noc3cc(Cn4cccn4)cc(OC)c23)c(OC)c1 [US20240400545, Compound 9]	< 10 nM
COc1cc(C#CC2CC2)cc(OC)c1S(=O)(=O)Nc1noc2cc(Cn3cccn3)cc(OC)c12 [US20240400545, Compound 10]	< 5 nM
C#Cc1ccc(S(=O)(=O)Nc2noc3cc(Cn4cccn4)cc(OC)c23)c(OC)c1 [US20240400545, Compound 11]	< 10 nM
COc1cc(C#CC2CC2)ccc1S(=O)(=O)Nc1noc2cc(Cn3cccn3)cc(OC)c12 [US20240400545, Compound 12]	< 10 nM
CC#Cc1ccc(OC)c(S(=O)(=O)Nc2noc3cc(Cn4cccn4)cc(OC)c23)c1 [US20240400545, Compound 13]	< 20 nM
COc1cc(C#CC2CC(F)(F)C2)cc(OC)c1S(=O)(=O)Nc1noc2cc(Cn3cccn3)cc(OC)c12 [US20240400545, Compound 15]	< 5 nM
CC#Cc1ccc(S(=O)(=O)Nc2noc3cc(Cn4cccn4)cc(OC)c23)c(OC)c1 [US20240400545, Compound 16]	< 10 nM
COc1cc(C#Cc2cccnc2)cc(O)c1S(=O)(=O)Nc1noc2cc(Cn3cccn3)cc(OC)c12 [US20240400545, Compound 19']	< 10 nM
COc1cc(C#Cc2cccnc2)cc(OC)c1S(=O)(=O)Nc1noc2cc(Cn3cccn3)cc(OC)c12 [US20240400545, Compound 19]	< 5 nM
COc1cc(C#CC2CN(C(=O)OC(C)(C)C)C2)cc(OC)c1S(=O)(=O)Nc1noc2cc(Cn3cccn3)cc(OC)c12 [US20240400545, Compound 20]	< 5 nM
COc1cc(C#CC2CNC2)cc(OC)c1S(=O)(=O)Nc1noc2cc(Cn3cccn3)cc(OC)c12 [US20240400545, Compound 21]	< 10 nM
COc1cc(C#CC2CN(C)C2)cc(OC)c1S(=O)(=O)Nc1noc2cc(Cn3cccn3)cc(OC)c12 [US20240400545, Compound 22]	< 20 nM
CC#Cc1cccc(OC)c1S(=O)(=O)Nc1noc2cc(Cn3cccn3)cc(OC)c12 [US20240400545, Compound 23]	< 20 nM
COc1cc(C#CC2CN(C)C2)ccc1S(=O)(=O)Nc1noc2cc(Cn3cccn3)cc(OC)c12 [US20240400545, Compound 24]	< 20 nM
